Reference: US8173438B1, “Microbiological assessment method and device utilizing oxygen gradient sensing” (Photonic BioSystems, Inc., priority 1996, dated 2012)

Key:
Assay type in all cases: cell-based
B. subtilis organisms [1] = test: Integrated biological sensor disk antibiotic susceptibility test (oxygen consumption via luminescent signal), 400,000 cells per disk
Experimental: In this example, organisms were applied to the integrated biological sensor disk in order to attain rapid measures of activity within the disk's microenvironment while the disk was incubated in culture media containing the antibiotic being assayed for effects on the microbial population.
B. subtilis organisms were cultured in Trypticase Soy Broth (TSB) media to obtain an inoculum of actively growing test organisms. Twenty microliter aliquots, each containing 400,000 cells (established by subsequent plate counting), were removed, and dispensed onto 0.25 inch diameter dry oxygen-sensor disks prepared from 0.45 micron pore cellulose-ester filter membrane stock (Millipore), in a manner similar to that described in Example 7. These integrated biological sensor disks bearing organisms were placed at the bottom of sterile polypropylene vessels, to which was added 1 ml of TSB media containing penicillin at concentrations of 5 ug/ml, or 5 ng/ml, or no antibiotic in the case of the positive growth control.
(§1) All samples were prepared and cultured in parallel, incubated at 37° C. and the oxygen consumption tracked via the integrated sensors' luminescent signals, in a manner similar to that shown in FIG. 7. […] The inhibitory effect of penicillin on organisms' growth was already manifesting itself in this time frame.

B. subtilis organisms [2] = test: Bulk-volume suspension culture antibiotic test with oxygen-sensor disk at vessel bottom; conditions: after 60 minutes, control 2%
Experimental: Alternatively, as a comparison of outgrowth and detection of antibiotic effects under bulk-volume assay conditions, identical aliquots of B. subtilis organisms were and mixed into 1 ml samples of TSB media prepared with and without penicillin as described above and dispensed into vessels. To measure oxygen consumption of the organisms in these bulk suspension samples, oxygen-sensor disks of the same derivation as the above integrated sensors, but without organisms applied to them, were placed in the bottom of the vessels.
as §1
By comparison, the bulk volume cultures of B. subtilis after 60 minutes were just beginning to show indications of growth but were too early into the assay to identify inhibitory effects. The control, without antibiotic present, was just 2% above baseline, which was the same signal level as the 5 ng/ml penicillin sample. The 5 ug/ml high dose registered 1% above baseline.

B. subtilis cells = test: Companion study: integrated sensor-BI, 8,000 cells collected by filtration on glass-fiber oxygen-sensor disks; conditions: for signal change: at about 3.5 hours (control 5% signal increase)
Experimental: A similar companion study, indicated the potential of the integrated sensor-BI to detect microbial activity and identify antibiotic sensitivity in several hours, using a small number of organisms to initiate the test. Inoculum of only 8,000 B. subtilis cells were collected by filtration, similar to Example 9, on oxygen-sensor disks made from Millipore AP-40 glass-fiber filter material (0.7 micron particle retention). In about 3.5 hours, without antibiotic present, the population expanded in the integrated biological sensor control, producing a 5% level signal increase, i.e. positive indication of outgrowth. […] After 8 hours of incubation, the low-dose penicillin exposed population eventually expanded enabling assay detection of outgrowth. No activity was identified in the sample exposed to the high dose at any point over the 20 hour assay.

Substance: penicillin
- sensitivity of the organisms to the antibiotic (B. subtilis organisms [1]; conclusion from 5 ng/ml and 5 ug/ml samples): sensitive
- signal increase (luminescent oxygen sensor signal above baseline) (B. subtilis organisms [1]; penicillin 5 ng/ml, after 60 minutes of assay, 37° C., TSB media, control without penicillin 12%): 6%
- metabolic activity (oxygen consumption) (B. subtilis organisms [1]; penicillin 5 ug/ml, throughout 40 hours of monitoring, 37° C.): no evidence of metabolic activity
- signal above baseline (B. subtilis organisms [2]; penicillin 5 ng/ml): 2%
- signal above baseline (B. subtilis organisms [2]; penicillin 5 ug/ml): 1%
- activity (outgrowth / oxygen consumption) (B. subtilis cells; high dose penicillin (5 ug/ml), at any point over the 20 hour assay): No activity
- incubation time to assay detection of outgrowth (B. subtilis cells; low-dose penicillin (5 ng/ml), control about 3.5 hours): 8 h
- signal change (B. subtilis cells; penicillin 5 ng/ml): No signal change
- signal change (B. subtilis cells; penicillin 5 ug/ml): No signal change
